From patent US5308766A (priority 1990, dated 1994)

How the values were obtained:
[1] = molecular target: phospholipase A2 obtained from cobra venom (Naja naja, UniProt P15445); assay type: biochemical
[2] = molecular target: PLA2 obtained from cobra venom (N. naja naja) (Naja naja, UniProt P15445); assay type: biochemical
[3] = Stability of p-nitrophenyl esters in solvents; assay type: physicochemical; conditions: polar solvents such as alcohols
Method: Pure samples of 1a-1e were obtained after HPLC chromatography using anhydrous MeOH to elute the lipid from a Brownlee C18 column. […] Storage of these compounds at -10° C. in CHCl3 or CH2 Cl2 greatly enhances the stability. Therefore, HPLC-purified SIBLINKS were immediately transferred to CHCl3 for storage. In an aqueous environment, the stability is enhanced when incorporated into vesicles or Triton micelles. The following are representative spectral data for lipids 1b, 1c, 1d and 1e containing a decanoyl (C10) chain moiety at the sn-1 position.

[4] = molecular target: phospholipase A2 obtained from cobra venom (Naja naja naja) (Naja naja, UniProt P15445); assay type: biochemical
[5] = in vivo; cited from earlier work
[6] = molecular target: cobra venom phospholipase A2 (PLA2) (Naja naja, UniProt P15445); conditions: cited from earlier work
PLA2 = conditions: modification of lysine residues; cited from earlier work
[7] = molecular target: bee venom phospholipase A2 (PLA2) (Apis mellifera, UniProt P00630); conditions: cited from earlier work
bee venom phospholipase A2 (PLA2), sequence (P00630 34-167 limits assumed): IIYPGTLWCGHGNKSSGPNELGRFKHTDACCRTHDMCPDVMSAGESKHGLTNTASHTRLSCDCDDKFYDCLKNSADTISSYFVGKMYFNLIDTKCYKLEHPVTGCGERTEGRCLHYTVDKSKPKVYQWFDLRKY

phospholipase A2 obtained from cobra venom, sequence (P15445 whole entry, looked up): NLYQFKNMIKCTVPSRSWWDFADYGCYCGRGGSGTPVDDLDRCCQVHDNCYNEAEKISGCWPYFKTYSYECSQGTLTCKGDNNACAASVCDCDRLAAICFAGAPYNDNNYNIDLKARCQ
PLA2 obtained from cobra venom (N. naja naja), sequence (P15445 whole entry, looked up): as above
phospholipase A2 obtained from cobra venom (Naja naja naja), sequence (P15445 whole entry, looked up): as above
cobra venom phospholipase A2 (PLA2), sequence (P15445 whole entry, looked up): as above

Row | Compound | efficiency of enzymatic deactivation (suicide inhibition) [1] | V, initial velocity for release of p-nitrophenol [2] | effect on P of raising preincubation temperature [1] | effect on inactivation time course of raising preincubation temperature [1] | stability of p-nitrophenyl ester [3] | also measured
1 | CCCCCCCCCC(=O)OC[C@H](COP(=O)([O-])OCC[N+](C)(C)C)OC(=O)CC(C)(C)CC(=O)Oc1ccc([N+](=O)[O-])cc1 [1c] | more efficient suicide inhibitors | 0.002 µmol/min/mg |  |  |  | 
2 | CCCCCCCCCC(=O)OC[C@H](COP(=O)([O-])OCC[N+](C)(C)C)OC(=O)CCC(=O)Oc1ccc([N+](=O)[O-])cc1 [1d] | less efficient, but is processed faster | 0.6 µmol/min/mg | did increase P | little effect | especially prone to hydrolysis | concentration below which mixed micelles do not inhibit [1]: 20 NM; ratio of inhibitor/PLA2 needed to observe inhibition [1]: > 40
3 | CCCCCCCCCC(=O)OC[C@H](COP(=O)([O-])OCC[N+](C)(C)C)OC(=O)CC(C)(C)C(=O)Oc1ccc([N+](=O)[O-])cc1 [1e] | more efficient suicide inhibitors | 0.005 µmol/min/mg |  |  |  | 
4 | CCCCCCCCCC(=O)OC[C@H](COP(=O)([O-])OCC[N+](C)(C)C)OC(=O)CCCC(=O)Oc1ccc([N+](=O)[O-])cc1 [compound 1a] |  | 155 µmol/min/mg |  |  | especially prone to hydrolysis | change of hydrolysis rate with Triton/phospholipid surface ratio [4]: diminishes three-fold; concentration of substrate required to reach half saturation, versus DPPC [4]: lower concentration of substrate
5 | CCCCCCCCCC(=O)OC[C@H](COP(=O)([O-])OCC[N+](C)(C)C)OC(=O)CCC(C)(C)C(=O)Oc1ccc([N+](=O)[O-])cc1 [compound 1b] | more efficient suicide inhibitors | 0.11 µmol/min/mg | did increase P | little effect |  | 
6 | CC1=C(CC/C(C)=C/CCC2=CC[C@H](C3=CC(=O)O[C@H]3O)O[C@H]2O)C(C)(C)CCC1 [manoalide] |  |  |  |  |  | anti-inflammatory activity [5]: anti-inflammatory activity in vivo; inhibition of cobra venom PLA2 [6]: inhibitor of both cobra and bee venom phospholipase A2; mode of PLA2 inactivation (PLA2): time-dependent irreversible inactivation; inhibition of bee venom PLA2 [7]: inhibitor of both cobra and bee venom phospholipase A2
